pEC50: −log10 of the molar value.
Each compound was assayed on endogenous cellular STAT1 (phosphorylated at Tyr701) in NCI-H1373 cells (assay: Phospho-STAT1 (Tyr701) LANCE Ultra TR-FRET Detection Assay). Details: Homo sapiens, NCI-H1373, 48 h, phospho-STAT1 (Tyr701) induction, read-out: NH1373 pSTAT1 EC50.
Format: cell-based

| pEC50 | Compound |
| --- | --- |
| 6.25 | Cc1cc(N)nc(-c2cc3ccn(CCC[C@H](C)Nc4cn[nH]c(=O)c4C(F)(F)F)c(=O)c3cc2F)n1 [Example 315, (S)-6-(4-amino-6-methylpyrimidin-2-yl)-7-fluoro-2-(4-((6-oxo-5-(trifluoromethyl)-1,6-dihydropyridazin-4-yl)amino)pentyl)isoquinolin-1(2H)-one] |
| 7.81 | C[C@@H](CCCn1ccc2cc(-c3cnc(C(F)(F)F)c(N)n3)c(F)cc2c1=O)Nc1cn[nH]c(=O)c1C(F)(F)F [Example 316, (S)-6-(6-amino-5-(trifluoromethyl)pyrazin-2-yl)-7-fluoro-2-(4-((6-oxo-5-(trifluoromethyl)-1,6-dihydropyridazin-4-yl)amino)pentyl)isoquinolin-1(2H)-one] |
| 7.35 | C[C@@H](CCCn1ccc2cc(-c3ncc(C(F)(F)F)c(N4CCS(=O)(=O)C4)n3)c(F)cc2c1=O)Nc1cn[nH]c(=O)c1C(F)(F)F [Example 317, (S)-6-(4-(1,1-dioxidothiazolidin-3-yl)-5-(trifluoromethyl)pyrimidin-2-yl)-7-fluoro-2-(4-((6-oxo-5-(trifluoromethyl)-1,6-dihydropyridazin-4-yl)amino)pentyl)isoquinolin-1(2H)-one] |
| 7.54 | C[C@@H]1C[C@H](C)N1c1nc(-c2cc3ccn(CCC[C@H](C)Nc4cn[nH]c(=O)c4C(F)(F)F)c(=O)c3cc2F)ncc1C(F)(F)F [Example 318, 6-(4-((2R,4S)-2,4-dimethylazetidin-1-yl)-5-(trifluoromethyl)pyrimidin-2-yl)-7-fluoro-2-((S)-4-((6-oxo-5-(trifluoromethyl)-1,6-dihydropyridazin-4-yl)amino)pentyl)isoquinolin-1(2H)-one] |
| 8.53 | Cc1nc(-c2cc3ccn(CCC[C@H](C)Nc4cn[nH]c(=O)c4C(F)(F)F)c(=O)c3cc2F)nc(N)c1Cl [Example 319, (S)-6-(4-amino-5-chloro-6-methylpyrimidin-2-yl)-7-fluoro-2-(4-((6-oxo-5-(trifluoromethyl)-1,6-dihydropyridazin-4-yl)amino)pentyl)isoquinolin-1(2H)-one] |
| 7.51 | CC[C@@H](CCCn1cnc2cc(-c3ncc(C(F)F)c(N)n3)c(F)cc2c1=O)Nc1cn[nH]c(=O)c1C(F)(F)F [Example 320, (S)-7-(4-amino-5-(difluoromethyl)pyrimidin-2-yl)-6-fluoro-3-(4-((6-oxo-5-(trifluoromethyl)-1,6-dihydropyridazin-4-yl)amino)hexyl)quinazolin-4(3H)-one] |
| 8.39 | CC[C@@H](CCCn1cnc2cc(-c3ncc(C(F)(F)F)c(N)n3)c(F)cc2c1=O)Nc1cn[nH]c(=O)c1C(F)(F)F [Example 321, (S)-7-(4-amino-5-(trifluoromethyl)pyrimidin-2-yl)-6-fluoro-3-(4-((6-oxo-5-(trifluoromethyl)-1,6-dihydropyridazin-4-yl)amino)hexyl)quinazolin-4(3H)-one] |
| 8.25 | C[C@@H](CCCn1ccc2cc(-c3ncc4cc(F)ccc4n3)c(F)cc2c1=O)Nc1cn[nH]c(=O)c1C(F)(F)F [Example 322, (S)-7-fluoro-6-(6-fluoroquinazolin-2-yl)-2-(4-((6-oxo-5-(trifluoromethyl)-1,6-dihydropyridazin-4-yl)amino)pentyl)isoquinolin-1(2H)-one] |
| 6.59 | C[C@@H](CCCn1ccc2cc(-c3nc(C(F)(F)F)co3)c(F)cc2c1=O)Nc1cn[nH]c(=O)c1C(F)(F)F [Example 323, (S)-7-fluoro-2-(4-((6-oxo-5-(trifluoromethyl)-1,6-dihydropyridazin-4-yl)amino)pentyl)-6-(4-(trifluoromethyl)oxazol-2-yl)isoquinolin-1(2H)-one] |
| 8.33 | C[C@@H](CCCn1ccc2cc(-c3cnc(C(F)F)c(N)n3)c(F)cc2c1=O)Nc1cn[nH]c(=O)c1C(F)(F)F [Example 324, (S)-6-(6-amino-5-(difluoromethyl)pyrazin-2-yl)-7-fluoro-2-(4-((6-oxo-5-(trifluoromethyl)-1,6-dihydropyridazin-4-yl)amino)pentyl)isoquinolin-1(2H)-one] |
| 7.97 | CC(C)c1cnc(-c2cc3ccn(CCC[C@H](C)Nc4cn[nH]c(=O)c4C(F)(F)F)c(=O)c3cc2F)nc1N [Example 325, (S)-6-(4-amino-5-isopropylpyrimidin-2-yl)-7-fluoro-2-(4-((6-oxo-5-(trifluoromethyl)-1,6-dihydropyridazin-4-yl)amino)pentyl)isoquinolin-1(2H)-one] |
| 6.95 | C[C@@H](CCCn1ccc2cc(-c3ncc(C(F)(F)F)cc3Cl)c(F)cc2c1=O)Nc1cn[nH]c(=O)c1C(F)(F)F [Example 326, (S)-6-(3-chloro-5-(trifluoromethyl)pyridin-2-yl)-7-fluoro-2-(4-((6-oxo-5-(trifluoromethyl)-1,6-dihydropyridazin-4-yl)amino)pentyl)isoquinolin-1(2H)-one] |
| 8.52 | Cc1nc(-c2cc3ccn(CCC[C@H](C)Nc4cn[nH]c(=O)c4C(F)(F)F)c(=O)c3cc2F)nc(N)c1C(F)(F)F [Example 327, (S)-6-(4-amino-6-methyl-5-(trifluoromethyl)pyrimidin-2-yl)-7-fluoro-2-(4-((6-oxo-5-(trifluoromethyl)-1,6-dihydropyridazin-4-yl)amino)pentyl)isoquinolin-1(2H)-one] |
| 7.10 | C[C@@H](CCCn1ccc2cc(-c3ncc(C(F)(F)F)cc3N)c(F)cc2c1=O)Nc1cn[nH]c(=O)c1C(F)(F)F [Example 328, (S)-6-(3-amino-5-(trifluoromethyl)pyridin-2-yl)-7-fluoro-2-(4-((6-oxo-5-(trifluoromethyl)-1,6-dihydropyridazin-4-yl)amino)pentyl)isoquinolin-1(2H)-one] |
| 7.01 | C[C@@H](CCCn1ccc2cc(-c3cnc(C(F)F)cn3)c(F)cc2c1=O)Nc1cn[nH]c(=O)c1C(F)(F)F [Example 329, (S)-6-(5-(difluoromethyl)pyrazin-2-yl)-7-fluoro-2-(4-((6-oxo-5-(trifluoromethyl)-1,6-dihydropyridazin-4-yl)amino)pentyl)isoquinolin-1(2H)-one] |
| 5.92 | C[C@@H](CCCn1ccc2cc(-c3ccc(F)c(C(F)F)n3)c(F)cc2c1=O)Nc1cn[nH]c(=O)c1C(F)(F)F [Example 330, (S)-6-(6-(difluoromethyl)-5-fluoropyridin-2-yl)-7-fluoro-2-(4-((6-oxo-5-(trifluoromethyl)-1,6-dihydropyridazin-4-yl)amino)pentyl)isoquinolin-1(2H)-one] |
| 7.11 | COc1cc(-c2cc3ccn(CCC[C@H](C)Nc4cn[nH]c(=O)c4C(F)(F)F)c(=O)c3cc2F)ncc1C(F)(F)F [Example 331, (S)-7-fluoro-6-(4-methoxy-5-(trifluoromethyl)pyridin-2-yl)-2-(4-((6-oxo-5-(trifluoromethyl)-1,6-dihydropyridazin-4-yl)amino)pentyl)isoquinolin-1(2H)-one] |
| 8.05 | C[C@@H](CCCn1ccc2cc(-c3cn4ccnc4c(N)n3)c(F)cc2c1=O)Nc1cn[nH]c(=O)c1C(F)(F)F [Example 332, (S)-6-(8-aminoimidazo[1,2-a]pyrazin-6-yl)-7-fluoro-2-(4-((6-oxo-5-(trifluoromethyl)-1,6-dihydropyridazin-4-yl)amino)pentyl)isoquinolin-1(2H)-one] |
| 6.30 | C[C@@H](CCCn1ccc2cc(-c3ccc4ncsc4n3)c(F)cc2c1=O)Nc1cn[nH]c(=O)c1C(F)(F)F [Example 333, (S)-7-fluoro-2-(4-((6-oxo-5-(trifluoromethyl)-1,6-dihydropyridazin-4-yl)amino)pentyl)-6-(thiazolo[5,4-b]pyridin-5-yl)isoquinolin-1(2H)-one] |

Reference: US12459922B2 (Gilead Sciences, Inc., priority 2022, dated 2025)
